This assay has as its target wild-type human cardiac sodium channel, hNav1.5 (late sodium current) in HEK293 cells (Homo sapiens, UniProt Q14524). In words: Late INa screening assay (automated whole-cell patch clamp, PatchXpress). The class given is cell-based. Conditions: late INa generated with 10 μM Tefluthrin (or 50 nM ATX II), HEK293 hNav1.5; for inhibition at 1 µM: HEK293, compound at 1 μM, read-out: Late INa 1 μM (percent block of late INa). The protocol: The late sodium current (Late INa) and peak sodium current (Peak INa) assays are performed on an automated electrophysiology platform, PatchXpress 7000A (MDS Analytical Technologies, Sunnyvale, Calif.), which uses the whole cell patch clamp technique to measure currents through the cell membrane of up to 16 cells at a time. The assay uses an HEK293 (human embryonic kidney) cell line heterologously expressing the wild-type human cardiac sodium channel, hNav1.5, purchased from Millipore (Billerica, Mass.). No beta subunits were coexpressed with the Na channel alpha subunit. Cells are maintained with standard tissue culture procedures and stable channel expression is maintained with 400 μg/ml Geneticin in the culture medium. Cells isolated for use on PatchXpress are incubated for 5 minutes in Versene 1× and then for 2 minutes in 0.0125% Trypsin-EDTA (both at 37° C.) to ensure that 80-90% of the cells are single and not part of a cell cluster. Experiments are carried out at 24-27° C.
For both the Late INa and Peak INa assays, series resistance compensation is set to 50% and whole-cell compensation is performed automatically. Currents are low-pass filtered at 10 kHz and digitized at 31.25 kHz. Currents through open sodium channels are automatically recorded and stored in the DataXpress2 database (MDS Analytical Technologies, Sunnyvale, Calif.). Analysis is performed using DataXpress2 analysis software and data are compiled in Excel.
Compound stocks are routinely made in glass vials to 10 mM in dimethyl sulfoxide (DMSO). In some cases, when compounds are not soluble in DMSO, they are made in 100% ethanol. Stocks are sonicated as necessary. The extracellular solution for screening Late INa is composed of: 140 mM NaCl, 4 mM KCl, 1.8 mM CaCl2, 0.75 mM MgCl2, and 5 mM HEPES with pH adjusted to 7.4 using NaOH. The extracellular solution for screening Peak INa is composed of: 20 mM NaCl, 120 mM N-methyl-D glucamine, 4 mM KCl, 1.8 mM CaCl2, 0.75 mM MgCl2, and 5 mM HEPES with pH adjusted to 7.4 using HCl. The intracellular solution used to perfuse the inside of the cells for both the Late INa and Peak INa assays contains: 120 mM CsF, 20 mM CsCl, 5 mM EGTA, 5 mM HEPES and pH adjusted to 7.4 with CsOH. Compounds are diluted in extracellular solution to 10 μM in glass vials and then transferred to glass well plates before robotic addition to the cells. The 0Na extracellular solution used at the end of each experiment for the Late INa and Peak INa assays to measure baseline current contains: 140 mM N-methyl-D-glucamine; 4 mM KCl; 1.8 mM CaCl2; 0.75 mM MgCl2; 5 mM HEPES and pH was adjusted to 7.4 with HCl.
For the Late INa assay, sodium channels are activated every 10 seconds (0.1 Hz) by depolarizing the cell membrane to −20 mV for 250 milliseconds (ms) from a holding potential of −120 mV. In response to a −20 mV voltage step, typical Nav1.5 sodium currents activate rapidly to a peak negative current and then inactivate nearly completely within 3-4 ms.
All compounds are tested to determine their activity in blocking the late sodium current. Late INa current is generated by adding 10 μM Tefluthrin (pyrethroid) to the extracellular solution while recording Na currents. For some experiments, 50 nM ATX II (sea anemone toxin), another late INa activator, was used to generate the late component. Both activators generate late components that are large enough that block of the late component by compounds can be measured easily. For the purposes of the screening, late INa is defined as the mean current between 225 ms and 250 ms after stepping to −20 mV to activate Na channels. After establishing the whole cell recording configuration, late INa activators are added to each well 4 times over a 16-17 minute period so that the late component of the Na current reaches a stable value. Compounds are then added (typically at 10 μM), in the presence of late INa activator, with 3 additions over the course of 7 or 8 minutes. […]

wild-type human cardiac sodium channel, hNav1.5 (late sodium current) in HEK293 cells, sequence (Q14524 whole entry): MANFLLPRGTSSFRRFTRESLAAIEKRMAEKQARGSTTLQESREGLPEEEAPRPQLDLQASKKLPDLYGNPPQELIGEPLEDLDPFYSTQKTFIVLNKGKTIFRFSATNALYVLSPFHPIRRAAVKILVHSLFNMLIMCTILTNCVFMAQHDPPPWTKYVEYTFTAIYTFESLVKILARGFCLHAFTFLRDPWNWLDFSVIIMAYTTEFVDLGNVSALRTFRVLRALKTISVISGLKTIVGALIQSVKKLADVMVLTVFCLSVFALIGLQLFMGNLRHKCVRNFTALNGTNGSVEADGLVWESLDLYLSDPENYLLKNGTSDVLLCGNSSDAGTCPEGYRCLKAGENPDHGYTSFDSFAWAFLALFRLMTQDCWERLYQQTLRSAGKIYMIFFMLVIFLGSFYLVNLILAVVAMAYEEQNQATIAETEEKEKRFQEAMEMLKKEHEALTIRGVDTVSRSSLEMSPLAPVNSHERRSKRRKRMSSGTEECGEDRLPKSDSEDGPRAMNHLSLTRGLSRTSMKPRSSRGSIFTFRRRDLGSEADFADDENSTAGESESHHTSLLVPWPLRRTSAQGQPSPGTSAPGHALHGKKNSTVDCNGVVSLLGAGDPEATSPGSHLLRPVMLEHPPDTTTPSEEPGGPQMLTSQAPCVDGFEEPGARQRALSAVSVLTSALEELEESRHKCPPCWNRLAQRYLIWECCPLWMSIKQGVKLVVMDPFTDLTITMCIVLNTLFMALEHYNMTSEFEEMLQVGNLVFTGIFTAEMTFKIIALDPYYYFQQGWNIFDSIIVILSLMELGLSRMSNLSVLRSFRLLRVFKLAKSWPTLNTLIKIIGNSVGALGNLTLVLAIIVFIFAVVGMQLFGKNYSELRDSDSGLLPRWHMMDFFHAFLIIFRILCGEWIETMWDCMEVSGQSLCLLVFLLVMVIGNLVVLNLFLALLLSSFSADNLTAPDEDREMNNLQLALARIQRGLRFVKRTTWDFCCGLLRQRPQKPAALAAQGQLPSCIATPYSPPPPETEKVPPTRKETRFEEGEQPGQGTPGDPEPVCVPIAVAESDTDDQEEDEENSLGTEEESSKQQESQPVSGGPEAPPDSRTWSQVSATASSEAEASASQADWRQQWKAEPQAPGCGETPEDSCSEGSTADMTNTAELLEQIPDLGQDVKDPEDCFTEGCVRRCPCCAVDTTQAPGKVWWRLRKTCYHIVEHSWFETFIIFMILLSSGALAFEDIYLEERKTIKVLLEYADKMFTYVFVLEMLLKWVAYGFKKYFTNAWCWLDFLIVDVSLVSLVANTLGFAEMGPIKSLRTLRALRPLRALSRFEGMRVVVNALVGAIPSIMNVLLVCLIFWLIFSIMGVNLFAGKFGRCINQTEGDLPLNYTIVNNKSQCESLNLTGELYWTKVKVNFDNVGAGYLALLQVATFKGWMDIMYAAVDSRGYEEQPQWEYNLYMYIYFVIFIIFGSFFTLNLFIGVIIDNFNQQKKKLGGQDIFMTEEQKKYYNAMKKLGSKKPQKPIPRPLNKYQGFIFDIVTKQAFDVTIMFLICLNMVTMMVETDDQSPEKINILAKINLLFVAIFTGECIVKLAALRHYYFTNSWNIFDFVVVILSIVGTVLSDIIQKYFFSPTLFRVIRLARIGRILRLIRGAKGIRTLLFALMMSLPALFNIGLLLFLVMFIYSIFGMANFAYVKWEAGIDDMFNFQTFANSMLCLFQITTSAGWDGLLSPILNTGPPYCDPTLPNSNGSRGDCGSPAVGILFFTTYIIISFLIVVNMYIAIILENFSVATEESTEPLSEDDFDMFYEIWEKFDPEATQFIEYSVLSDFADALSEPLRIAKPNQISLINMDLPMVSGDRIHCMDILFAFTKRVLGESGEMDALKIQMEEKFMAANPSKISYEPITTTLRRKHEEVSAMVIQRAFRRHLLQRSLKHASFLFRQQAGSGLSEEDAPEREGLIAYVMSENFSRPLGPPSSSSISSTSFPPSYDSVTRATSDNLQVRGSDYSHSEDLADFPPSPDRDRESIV

In the case of `CCc1noc(C(C)n2nc3ccc(-c4ccc(OC(F)(F)F)cc4)cn3c2=O)n1` (stereo not drawn) [compound 14, 2-(1-(3-ethyl-1,2,4-oxadiazol-5-yl)ethyl)-6-(4-(trifluoromethoxy)phenyl)-[1,2,4]triazolo[4,3-a]pyridin-3(2H)-one], the inhibition at 1 µM is 12%.

As to `CCc1noc(Cn2nc3ccc(-c4ccc(OC(F)(F)F)cc4)cn3c2=O)n1` [compound 15, 2-((3-ethyl-1,2,4-oxadiazol-5-yl)methyl)-6-(4-(trifluoromethoxy)phenyl)-[1,2,4]triazolo[4,3-a]pyridin-3(2H)-one], the “Late INa 1 μM (percent block of late INa)” value (compound at 1 μM) was 13.5253%.

For the molecule `O=c1n(Cc2ccccn2)nc2ccc(-c3ccc(OC(F)(F)F)cc3)cn12` [compound 16, 2-(pyridin-2-ylmethyl)-6-(4-(trifluoromethoxy)phenyl)-[1,2,4]triazolo[4,3-a]pyridin-3(2H)-one], the inhibition at 1 µM amounted to 11.5%.

Regarding `O=c1n(Cc2nonc2-c2ccccc2)nc2ccc(-c3ccc(OC(F)(F)F)cc3)cn12` [compound 17, 2-((4-phenyl-1,2,5-oxadiazol-3-yl)methyl)-6-(4-(trifluoromethoxy)phenyl)-[1,2,4]triazolo[4,3-a]pyridin-3(2H)-one], the inhibition at 1 µM stood at 18.4%.

As for `Cc1nnc(Cn2nc3ccc(-c4ccc(OC(F)(F)F)cc4)cn3c2=O)o1` [compound 18, 2-((5-methyl-1,3,4-oxadiazol-2-yl)methyl)-6-(4-(trifluoromethoxy)phenyl)-[1,2,4]triazolo[4,3-a]pyridin-3(2H)-one], the inhibition at 1 µM came out at 11.5%.

As for `O=c1n(Cc2ncco2)nc2ccc(-c3ccc(OC(F)(F)F)cc3)cn12` [compound 19, 2-(oxazol-2-ylmethyl)-6-(4-(trifluoromethoxy)phenyl)-[1,2,4]triazolo[4,3-a]pyridin-3(2H)-one], the inhibition at 1 µM turned out to be 18.1%.

In the case of `O=c1n(Cc2nc3ccccc3s2)nc2ccc(-c3ccc(OC(F)(F)F)cc3)cn12` [compound 20, 2-(benzo[d]thiazol-2-ylmethyl)-6-(4-(trifluoromethoxy)phenyl)-[1,2,4]triazolo[4,3-a]pyridin-3(2H)-one], the inhibition at 1 µM came to 17.4%.

`Cc1oc(-c2ccccc2)nc1Cn1nc2ccc(-c3ccc(OC(F)(F)F)cc3)cn2c1=O` [compound 21, 2-((5-methyl-2-phenyloxazol-4-yl)methyl)-6-(4-(trifluoromethoxy)phenyl)-[1,2,4]triazolo[4,3-a]pyridin-3(2H)-one]: the inhibition at 1 µM turned out to be 11%.

Regarding `Cc1nc(Cn2nc3ccc(-c4ccc(OC(F)(F)F)cc4)cn3c2=O)oc1C` [compound 22, 2-((4,5-dimethyloxazol-2-yl)methyl)-6-(4-(trifluoromethoxy)phenyl)-[1,2,4]triazolo[4,3-a]pyridin-3(2H)-one], the inhibition at 1 µM was 29.4%.

For `COc1ccccc1OCC(Cn1nc2ccc(-c3ccc(OC(F)(F)F)cc3)cn2c1=O)OC` (stereo not drawn) [compound 23, 2-(2-methoxy-3-(2-methoxyphenoxy)propyl)-6-(4-(trifluoromethoxy)phenyl)-[1,2,4]triazolo[4,3-a]pyridin-3(2H)-one], the inhibition at 1 µM worked out at 55.1%.

For `O=c1n(CCCOc2ccccc2)nc2ccc(-c3ccc(OC(F)(F)F)cc3)cn12` [compound 24, 2-(3-phenoxypropyl)-6-(4-(trifluoromethoxy)phenyl)-[1,2,4]triazolo[4,3-a]pyridin-3(2H)-one], the inhibition at 1 µM stood at 25%.

With `Cc1cnc(Cn2nc3ccc(-c4ccc(OC(F)(F)F)cc4)cn3c2=O)o1` [compound 25, 2-((5-methyloxazol-2-yl)methyl)-6-(4-(trifluoromethoxy)phenyl)-[1,2,4]triazolo[4,3-a]pyridin-3(2H)-one], the inhibition at 1 µM came to 30.3%.

Consider `Cn1nc(C2CC2)cc1Cn1nc2ccc(-c3ccc(OC(F)(F)F)cc3)cn2c1=O` [compound 26, 2-((3-cyclopropyl-1-methyl-1H-pyrazol-5-yl)methyl)-6-(4-(trifluoromethoxy)phenyl)-[1,2,4]triazolo[4,3-a]pyridin-3(2H)-one], for which the inhibition at 1 µM was 19.3%.

On to `O=c1n(Cc2ncon2)nc2ccc(-c3ccc(OC(F)(F)F)cc3)cn12` [compound 27, 2-((1,2,4-oxadiazol-3-yl)methyl)-6-(4-(trifluoromethoxy)phenyl)-[1,2,4]triazolo[4,3-a]pyridin-3(2H)-one], for which the inhibition at 1 µM amounted to 11.2%.

Take `O=c1n(CCOc2ccccc2)nc2ccc(-c3ccc(OC(F)(F)F)cc3)cn12` [compound 28, 2-(2-phenoxyethyl)-6-(4-(trifluoromethoxy)phenyl)-[1,2,4]triazolo[4,3-a]pyridin-3(2H)-one]: the inhibition at 1 µM amounted to 46.3%.

In the case of `O=c1n(Cc2nc(Cc3ccccc3)no2)nc2ccc(-c3ccc(OC(F)(F)F)cc3)cn12` [compound 29, 2-((3-benzyl-1,2,4-oxadiazol-5-yl)methyl)-6-(4-(trifluoromethoxy)phenyl)-[1,2,4]triazolo[4,3-a]pyridin-3(2H)-one], the inhibition at 1 µM turned out to be 27.2%.

Take `COc1c(-c2ccc(OC(F)(F)F)cc2)ccc2nn(Cc3nc(C)no3)c(=O)n12` [compound 30, 5-methoxy-2-((3-methyl-1,2,4-oxadiazol-5-yl)methyl)-6-(4-(trifluoromethoxy)phenyl)-[1,2,4]triazolo[4,3-a]pyridin-3(2H)-one]: the inhibition at 1 µM came out at 18.2%.

In the case of `Cc1nc(Cn2nc3ccc(-c4cccc(Oc5ccccc5)c4)cn3c2=O)no1` [compound 31, 2-((5-methyl-1,2,4-oxadiazol-3-yl)methyl)-6-(3-phenoxyphenyl)-[1,2,4]triazolo[4,3-a]pyridin-3(2H)-one], the inhibition at 1 µM stood at 24.4%.

For the molecule `Cc1nc(Cn2nc3ccc(-c4ccc(Oc5ccc(Cl)cc5)cc4)cn3c2=O)no1` [compound 32, 6-(4-(4-chlorophenoxy)phenyl)-2-((5-methyl-1,2,4-oxadiazol-3-yl)methyl)-[1,2,4]triazolo[4,3-a]pyridin-3(2H)-one], the inhibition at 1 µM was 68.5%.

For `O=c1n(Cc2nc(-c3ccccc3Cl)no2)nc2ccc(-c3ccc(OC(F)(F)F)cc3)cn12` [compound 33, 2-((3-(2-chlorophenyl)-1,2,4-oxadiazol-5-yl)methyl)-6-(4-(trifluoromethoxy)phenyl)-[1,2,4]triazolo[4,3-a]pyridin-3(2H)-one], the inhibition at 1 µM was found to be 20.5%.

As to `O=c1n(-c2ccccn2)nc2ccc(-c3ccc(OC(F)(F)F)cc3)cn12` [compound 34, 2-(pyridin-2-yl)-6-(4-(trifluoromethoxy)phenyl)-[1,2,4]triazolo[4,3-a]pyridin-3(2H)-one], the inhibition at 1 µM was 26%.

As for `O=c1n(CCn2cccn2)nc2ccc(-c3ccc(OC(F)(F)F)cc3)cn12` [compound 35, 2-(2-(1H-pyrazol-1-yl)ethyl)-6-(4-(trifluoromethoxy)phenyl)-[1,2,4]triazolo[4,3-a]pyridin-3(2H)-one], the inhibition at 1 µM stood at 12.2%.

In the case of `O=c1n(CCc2ccccn2)nc2ccc(-c3ccc(OC(F)(F)F)cc3)cn12` [compound 36, 2-(2-(pyridin-2-yl)ethyl)-6-(4-(trifluoromethoxy)phenyl)-[1,2,4]triazolo[4,3-a]pyridin-3(2H)-one], the inhibition at 1 µM came to 48.4%.

Regarding `COc1ccccc1OCCCn1nc2ccc(-c3ccc(OC(F)(F)F)cc3)cn2c1=O` [compound 37, 2-(3-(2-methoxyphenoxy)propyl)-6-(4-(trifluoromethoxy)phenyl)-[1,2,4]triazolo[4,3-a]pyridin-3(2H)-one], the inhibition at 1 µM is 34.5%.

The values above are taken from patent US9079901B2, “Fused heterocyclic compounds as ion channel modulators” (Gilead Sciences, Inc., priority 2010, dated 2015).
